According to BindingDB's records for doi:10.1016/s0014-2999(98)00159-9 (Novartis Pharma, 1998):
Where “and” joins values, the source holds several entries; their conditions need not be identical. Equal values may be shown once. Where a SMILES comes first, the peptide text is derived from it. Bridges are numbered along the chain shown (N, C = ends). [ ]: non-standard residue; d: D form. The star is where a group is joined. d1Nal = N[C@H](Cc1cccc2ccccc12)C(=O)O; Ahp = NCCCCCCC(=O)O; Bn = c1ccc(C*)cc1

Columns and labels:
[1] = molecular target: Somatostatin receptor type 2 (Homo sapiens, UniProt P30874)
[2] = molecular target: Somatostatin receptor type 5 (Homo sapiens, UniProt P35346)
Somatostatin receptor type 5, sequence (P35346 whole entry): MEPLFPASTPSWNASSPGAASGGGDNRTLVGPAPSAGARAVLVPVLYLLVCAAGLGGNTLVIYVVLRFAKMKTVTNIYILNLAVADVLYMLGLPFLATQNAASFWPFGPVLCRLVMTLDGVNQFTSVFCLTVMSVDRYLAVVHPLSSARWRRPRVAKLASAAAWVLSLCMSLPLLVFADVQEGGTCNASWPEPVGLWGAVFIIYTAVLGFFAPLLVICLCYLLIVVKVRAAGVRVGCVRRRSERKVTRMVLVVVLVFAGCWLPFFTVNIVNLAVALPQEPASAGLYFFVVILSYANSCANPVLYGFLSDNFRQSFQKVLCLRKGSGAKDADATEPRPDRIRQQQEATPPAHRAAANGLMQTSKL

Somatostatin receptor type 2, sequence (P30874 whole entry): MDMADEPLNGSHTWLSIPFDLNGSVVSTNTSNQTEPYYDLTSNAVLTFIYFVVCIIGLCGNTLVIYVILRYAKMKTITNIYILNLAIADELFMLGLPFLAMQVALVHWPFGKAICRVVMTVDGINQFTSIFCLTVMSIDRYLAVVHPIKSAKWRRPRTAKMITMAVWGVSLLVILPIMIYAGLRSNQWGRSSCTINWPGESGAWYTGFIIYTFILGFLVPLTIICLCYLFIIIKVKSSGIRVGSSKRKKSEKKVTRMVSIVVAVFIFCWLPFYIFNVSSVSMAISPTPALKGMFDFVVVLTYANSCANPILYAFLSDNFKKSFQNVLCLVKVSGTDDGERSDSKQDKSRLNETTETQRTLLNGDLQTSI

Compound | Ki [1] | Ki [2]
C[C@@H](OCc1ccccc1)[C@@H]1NC(=O)[C@H](CCCCN)NC(=O)[C@@H](Cc2c[nH]c3ccccc23)NC(=O)[C@H](Cc2ccccc2)NC(=O)CCCCCCNC1=O [c[Aha-Phe-D-Trp-Lys-Thr(Bzl)]] (cyclo([Ahp]F[dW]KT(Bn))) | 1580 nM and 3980 nM and 3720 nM and 1700 nM and 1260 nM | 
C[C@@H](O)[C@H](NC(=O)[C@H](Cc1ccccc1)NC(=O)[C@@H](NC(=O)[C@H](CCCCN)NC(=O)[C@@H](Cc1c[nH]c2ccccc12)NC(=O)[C@H](Cc1ccccc1)NC(=O)[C@H](Cc1ccccc1)NC(=O)[C@H](N)Cc1ccccc1)[C@@H](C)O)C(N)=O [CAS_133073-82-2] (H-[dF]FF[dW]KTFT-NH2) | 1.73 nM and 5.01 nM and 16.6 nM and 2.81 nM and 1.86 nM | 
C[C@@H](O)[C@@H]1NC(=O)[C@H](CCCCN)NC(=O)[C@H](Cc2c[nH]c3ccccc23)NC(=O)[C@H](Cc2ccccc2)NC(=O)[C@H](Cc2ccccc2)NC(=O)[C@H](CC(N)=O)NC(=O)[C@H](CCCCN)NC(=O)[C@@H](NC(=O)[C@@H]2CCCN2)CSSC[C@@H](C(=O)N[C@@H](CCCCN)C(=O)O)NC(=O)[C@H](CO)NC(=O)[C@H](CO)NC(=O)[C@H](Cc2ccccc2)NC1=O [CORTISTATIN-14] (H-PCKNFFWKTFSSCK-OH; disulfide 2-13) | 0.91 nM and 1.77 nM and 4.46 nM | 0.57 nM and 1.94 nM and 0.45 nM
C[C@@H](O)[C@@H]1NC(=O)[C@H](CCCCN)NC(=O)[C@@H](Cc2c[nH]c3ccccc23)NC(=O)[C@H](Cc2ccccc2)NC(=O)[C@@H]2CCCN2C(=O)[C@H](Cc2ccccc2)NC1=O (cyclo(PF[dW]KTF)) | 5.24 nM and 4.07 nM and 4.78 nM and 0.53 nM | 
CC(C)[C@@H]1NC(=O)[C@H](CCCCN)NC(=O)[C@@H](Cc2c[nH]c3ccccc23)NC(=O)[C@H](Cc2ccc(O)cc2)NC(=O)[C@@H](NC(=O)[C@H](N)Cc2ccc3ccccc3c2)CSSC[C@@H](C(=O)N[C@H](C(N)=O)[C@@H](C)O)NC1=O [3-(2-Naphtyl)-D-Ala-L-Cys(1)-L-Tyr-D-Trp-L-Lys-L-Val-L-Cys(1)-L-Thr-NH2] | 0.53 nM and 1.38 nM and 0.28 nM and 0.21 nM | 
CC(C)[C@H](NC(=O)[C@H](CCCCN)NC(=O)[C@@H](Cc1c[nH]c2ccccc12)NC(=O)[C@H](Cc1ccc(O)cc1)NC(=O)[C@H](Cc1ccccc1)NC(=O)[C@H](N)Cc1ccccc1)C(=O)N[C@@H](Cc1ccccc1)C(=O)N[C@H](Cc1cccc2ccccc12)C(N)=O [BIM 23056] (H-[dF]FY[dW]KVF[d1Nal]-NH2) | 468 nM and 724 nM and 417 nM and 224 nM | 
C[C@@H](O)[C@@H]1NC(=O)[C@H](CCCCN)NC(=O)[C@@H](Cc2c[nH]c3ccccc23)NC(=O)[C@H](Cc2c[nH]c3ccccc23)NC(=O)[C@H](Cc2ccccc2)NC(=O)CCCCCCNC(=O)[C@H](Cc2ccccc2)NC1=O [L-362855] (cyclo([Ahp]FW[dW]KTF)) | 2.04 nM and 4.36 nM and 1.62 nM | 
